Experiments:
[1] = biological target: T1, α-2,6-sialyltransferase from rat liver (Rattus norvegicus, UniProt P13721); conditions: each inhibitor tested at a concentration of 0.25 mM; cited from earlier work
T1 construct: host or cells: rat liver
T1 sequence (P13721 1-403): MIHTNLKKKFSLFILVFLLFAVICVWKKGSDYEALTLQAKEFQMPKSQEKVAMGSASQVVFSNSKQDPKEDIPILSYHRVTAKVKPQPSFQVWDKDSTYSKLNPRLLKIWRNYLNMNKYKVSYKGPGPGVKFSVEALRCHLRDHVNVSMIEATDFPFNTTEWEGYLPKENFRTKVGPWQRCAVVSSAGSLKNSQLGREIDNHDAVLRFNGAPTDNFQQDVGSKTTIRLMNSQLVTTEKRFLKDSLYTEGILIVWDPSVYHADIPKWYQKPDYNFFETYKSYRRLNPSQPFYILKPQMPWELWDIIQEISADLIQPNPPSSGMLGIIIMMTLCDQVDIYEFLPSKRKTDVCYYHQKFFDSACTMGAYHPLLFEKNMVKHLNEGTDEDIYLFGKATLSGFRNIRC

Δ89 hST6Gal-I = biological target: T2, Δ89 hST6Gal-I (Homo sapiens, UniProt P15907); experiment: Inhibition of sialidase activity of Δ89 hST6Gal-I by CTP; assay type: biochemical
T2 construct: Erythropoietin signal peptide (Epo) (N, cleaved yes); AP spacer (two amino acids) (N, cleaved yes); made in house; host or cells: HEK 293 cells (transient expression, secreted)
T2 sequence (P15907 90-406): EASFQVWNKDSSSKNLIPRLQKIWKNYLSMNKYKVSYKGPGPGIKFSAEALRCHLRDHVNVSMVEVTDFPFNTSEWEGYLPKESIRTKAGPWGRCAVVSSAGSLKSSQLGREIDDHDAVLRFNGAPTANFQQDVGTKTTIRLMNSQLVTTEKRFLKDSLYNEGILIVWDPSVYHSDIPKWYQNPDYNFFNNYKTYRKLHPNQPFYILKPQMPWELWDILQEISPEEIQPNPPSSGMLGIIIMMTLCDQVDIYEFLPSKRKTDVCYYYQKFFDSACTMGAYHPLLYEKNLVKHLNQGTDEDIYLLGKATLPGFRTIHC
Experimental: A highly galactosylated humanized monoclonal antibody IgG4 MAB was used in sialylation experiments. The reaction mixture contained IgG4 MAB (300 µg in 55 µL 35 mM sodium actetate/Tris buffer pH 7.0), the donor substrate CMP-NANA (150 µg in 50 µL water) and sialyltransferase (30 µg Δ89 hST6Gal-I in 20 mM potassium phosphate, 0.1 M NaCl, pH 6.5). The samples were incubated at 37°C for a defined time. To stop the reaction the samples were frozen at -20°C. For mass analysis 100 µL denaturing buffer (6 M guanidinium chloride) and 30 µL TCEP (= tris(2-carboxyethyl)phosphine; 0.1 mM, diluted in denaturing buffer) were added to the samples and the samples were incubated at 37°C for 1 h. The samples were buffered in electrospray medium [20% ACN (= acetonitrile), 1% FA (= […])] using pre-equilibrated illustra™ Nap5-Columns (GE-Healthcare). Samples were analyzed by electrospray ionization mass spectrometry and the content of G2+0SA, G2+1SA and G2+2SA N-glycans was determined. A Micromass Q-Tof Ultima and a Synapt G2 HDMS device (Waters UK) were used, the software used was MassLynx V 4.1. […]
The compound cytidine-5'-triphosphate (CTP) is a known potent inhibitor of sialyltransferases (Scudder PR & Chantler EN BBA 660 (1981) 136-141). […] At different times samples were taken and the content of G2+0SA, G2+1SA and G2+2SA was determined by mass spectrometry. […]

| Compound | inhibition of α-2,6-sialyltransferase [1] [%] | degradation of G2+2SA caused by the sialidase activity (Δ89 hST6Gal-I; CTP 0.67 mM, compared to inhibitor-free conditions) | G2+2SA still present (Δ89 hST6Gal-I; after 72 h of incubation, CTP added after 7 h, final concentration 0.67 mM) [%] |
| --- | --- | --- | --- |
| Nc1ccn([C@@H]2O[C@H](CO)[C@@H](O)[C@H]2OP(=O)(O)O)c(=O)n1 [2'-CMP] | 40 |  |  |
| Nc1ccn([C@@H]2O[C@H](CO)[C@@H](OP(=O)(O)O)[C@H]2O)c(=O)n1 [3'-CMP] | 39 |  |  |
| Nc1ccn([C@@H]2O[C@H](COP(=O)(O)O)[C@@H](O)[C@H]2O)c(=O)n1 [5'-CMP, Cytidine monophosphate] | 71 |  |  |
| Nc1ccn([C@@H]2O[C@H](COP(=O)(O)OP(=O)(O)OP(=O)(O)O)[C@@H](O)[C@H]2O)c(=O)n1 [CTP, cytidine-5'-triphosphate] |  | significantly reduced | 73 |
| Nc1ccn([C@@H]2O[C@H](CO)[C@@H](O)[C@H]2O)c(=O)n1 [Cytidine] | 70 |  |  |
